Some results are limits rather than exact numbers.

The assay has as its system Escherichia coli. The assay is described as follows: Biological activity against Escherichia coli N1HJ JC-2 relative to Norfloxacin. Format: functional.
Compound `CN1CCN(c2cc3c(cc2F)c(=O)c(C(=O)O)c2n3CCS2)CC1` returned an activity relative to norfloxacin of 4.

The compound `C[C@H]1COc2c(N3CCN(C)CC3)c(F)cc3c(=O)c(C(=O)O)cn1c23.C[C@H]1COc2c(N3CCN(C)CC3)c(F)cc3c(=O)c(C(=O)O)cn1c23.O` [LEVOFLOXACIN] gave an activity relative to norfloxacin of 4. Regarding `COc1ccc(-n2cc(C(=O)O)c(=O)c3cc(F)c(N4CCN(C)CC4)cc32)cc1`, the activity relative to norfloxacin came out at 0.004. In the case of `O=C(O)c1cn(C2CC2)c2cc(N3CCNCC3)c(F)cc2c1=O` [CIPROFLOXACIN] it was 4; in that of `O=C(O)c1cn(CCO)c2cc(N3CCNCC3)c(F)cc2c1=O`, 0.25.

`CN1CCN(c2cc3c(cc2F)c(=O)c(C(=O)O)cn3-c2ccc(Cl)cc2)CC1` displayed an activity relative to norfloxacin of 0.25. In the case of `O=C(O)c1c(=O)c2cc(F)c(N3CCNCC3)cc2n2ccsc12` it was 4; in that of `CN1CCN(c2cc3c(cc2F)c(=O)c(C(=O)O)cn3-c2ccc(F)cc2)CC1` [DIFLOXACIN], 4; in that of `CN1CCN(c2cc3c(cc2F)c(=O)c(C(=O)O)cn3-c2ccccc2F)CC1`, 0.25.

In the case of `CCCn1cc(C(=O)O)c(=O)c2cc(F)c(N3CCNCC3)cc21`, the activity relative to norfloxacin came to 0.25.

For the compound `Cc1cccc(C)c1-n1cc(C(=O)O)c(=O)c2cc(F)c(N3CCN(C)CC3)cc21`, the activity relative to norfloxacin was less than 0.004. The compound `O=C(O)c1cn(Cc2ccccc2)c2cc(N3CCNCC3)c(F)cc2c1=O` had an activity relative to norfloxacin of 0.25. To `Cc1csc2c(C(=O)O)c(=O)c3cc(F)c(N4CCNCC4)cc3n12` belongs 4. In the case of `C=CCn1cc(C(=O)O)c(=O)c2cc(F)c(N3CCNCC3)cc21` it was 0.25; in that of `CN1CCN(c2cc3c(cc2F)c(=O)c(C(=O)O)cn3-c2ccc(O)cc2)CC1`, 4.

Compound `CN1CCN(c2cc3c(cc2F)c(=O)c(C(=O)O)cn3-c2ccc3c(c2)OCO3)CC1` gave an activity relative to norfloxacin of 0.25. To `CN1CCN(c2cc3c(cc2F)c(=O)c(C(=O)O)cn3-c2ccc(F)cc2F)CC1` belongs 4; to `Cc1ccc(-n2cc(C(=O)O)c(=O)c3cc(F)c(N4CCN(C)CC4)cc32)cc1`, 0.25; to `C=Cn1cc(C(=O)O)c(=O)c2cc(F)c(N3CCNCC3)cc21`, 4. Compound `Cc1ccccc1-n1cc(C(=O)O)c(=O)c2cc(F)c(N3CCN(C)CC3)cc21` gave an activity relative to norfloxacin of 0.25. In the case of `O=C(O)c1cn(CCF)c2cc(N3CCNCC3)c(F)cc2c1=O` it was 4; in that of `CN1CCN(c2cc3c(cc2F)c(=O)c(C(=O)O)cn3-c2ccccc2)CC1`, 0.25; in that of `CCn1cc(C(=O)O)c(=O)c2cc(F)c(N3CCNCC3)cc21` [NORFLOXACIN], 4.

The compound `CN1CCN(c2cc3c(cc2F)c(=O)c(C(=O)O)cn3-c2cccc(F)c2)CC1` showed an activity relative to norfloxacin of 0.0312. In the case of `CN1CCN(c2cc3c(cc2F)c(=O)c(C(=O)O)cn3-c2ccc(Br)cc2)CC1` it was 0.0312. Consider `C[C@@H]1COc2c(N3CCN(C)CC3)c(F)cc3c(=O)c(C(=O)O)cn1c23` [DEXTROFLOXACINE], for which the activity relative to norfloxacin was 0.25. To `CN(C)CCn1cc(C(=O)O)c(=O)c2cc(F)c(N3CCNCC3)cc21` belongs 0.0312. In the case of `CNn1cc(C(=O)O)c(=O)c2cc(F)c(N3CCN(C)CC3)cc21` [AMIFLOXACIN] it was 4; in that of `Cn1cc(C(=O)O)c(=O)c2cc(F)c(N3CCNCC3)cc21`, 0.25.

For the origin of these results see ChEMBL document CHEMBL1125906, “Three-dimensional structure-activity relationships and receptor mapping of N1-substituents of quinolone antibacterials” (1991).
